The structures appear in SMILES notation.

The subject of series [1] is rat hepatocytes. In words: MTT cell viability assay after loading. In kind it is cell-based. The following applies: 48 h after loading with 30 mM. As for the experimental part: To evaluate cell viability after incubation with acetylated trehalose compared to control group, […] 0.5 mg/ml. The cells were incubated with the MTT reagent for 2 hrs. At the end of incubation, the MTT reagent was removed and the cells were incubated with DMSO for 10 min to dissolve all crystallized formazan. Then, the concentration of formazan was assayed by reading the absorption values of the DMSO solution in a spectrophotometric plate reader at 560 nm.
Background: Formazan colour is commonly taken as a measure of viable cells.

Series [2] is described as follows: Diffusion-reaction model fitted to the uptake data (membrane permeability and esterase kinetics). Type of series: in vitro ADME, rat. The note with it: female, Lewis, rat, not told, pH 7.1, read-out: P, membrane permeability. The text has this:
(§1) We assume a lumped passive diffusion model for (n)-O-Ac-Tre across the cell membrane, the rate of change in the intracellular concentration of variants of (n)-O-Ac-Tre, C n, may be expressed using Fick’s first law: d[Cn]/dt=−PnA/V([Cn*]−[Cn]), (1) where P n is the membrane permeability of (n)-O-Ac-Tre. Parameters A and V are cell surface area available for transport and cell volume, respectively. Cn* is the extracellular concentration of (n)-O-Ac-Tre, which is equal to zero for all n<6. For the intracellular de-acetylation of (n)-O-Ac-Tre to (n-1)-O-Ac-Tre by esterase activity, we assume enzymatic reaction kinetics as the following: (n)-O-Ac-Tre+E→knf←knr[(n)-O-Ac-Tre+E]→kncat(n-1)-O-Ac-Tre+E where knf,knr and kncat are the kinetic reaction constants for (n)-O-Ac-Tre variants ranging from 6 to 0. We may assume that the process of de-acetylation of 6-O-Ac-Tre is a series of parallel first order enzymatic reactions competing for enzyme molecules (Fig 2).
(§2) Based on the proposed reaction model, the rate of change in the concentration of (n)-O-Ac-Tre ([C n]) and the intermediate ([C n E]) can be expressed as: d[Cn]/dt=−knf[Cn][En]+knr[CnE]+kn+1cat[Cn+1E]−PnA/V([Cn]−[Cn*]) (2) d[CnE]/dt=knf[Cn][En]−knr[CnE]−kncat[CnE] (3)
(§3) In the above set of equations, [E n] is the fraction of the free enzyme that would interact with [C n]. Assuming quasi-steady-state condition, the left-hand-side of Eq (3) is zero. […] [CnE]=knf[Cn][En]/(knr+kncat) (4)
(§4) We may assume that the probablity of the free enzyme interaction with variants of 6-O-Ac-Tre is directly proportional to respective mole fractions, x n: [En]=[E][Cn]/∑n[Cn]=[E]xn (5) where [E] is the concentration of the free enzyme, which can also be expressed as [E] = [E 0]−∑[C n E]. By replacing Eq (5) in Eq (4), summation over n, and rearranging, we get: [E]=[E0]/1+∑([Cn][xn]/Knm) (6) where Knm=knr+kncat/knf is equivalent of the Michaelis-Menten constant for the enzymatic break-down of (n)-O-Ac-Tre variant. After substituting Eq (6) and Eq (4) in Eq (2) and rearranging, we can propose the rate of change in the concentration of (n)-O-Ac-Tre as the following: d[Cn]/dt=−Vnmax[Cn]xn/Knm(1+∑([Cn][xn]/Knm))+Vn+1max[Cn+1]xn+1/Kn+1m(1+∑([Cn][xn]/Knm))+PnA/V([Cn*]−[Cn]) (7) where Vnmax=kncat[E0] . For trehalose and 6-O-Ac-Tre, the first and second terms on the rights hand side of […] are omitted, respectively. Eq (7) is the general form of the Michaelis-Menten formulation of a multi-step enzymatic reaction for this specific case.
(§5) The permeability coefficient P n, and the coefficients Vnmax and K n in the above list of equations are unknown since no data is available in the literature on these novel molecules to be used in the model. Therefore, the values of these parameters were obtained by fitting the model to the data using a custom-written code in MATLAB (The MathWorks, Natick, MA, USA).
(§6) The proposed diffusion-reaction model in the Methods section allows calculating the permeability coefficients for 6-O-Ac-Tre by fitting the model to the experimental results for 6-O-Ac-Tre. First, we made a few simplifying assumptions. […] We also assumed that the enzymatic kinetics of the de-acetylation process were similar for all the steps of hydrolysis of (n)-O-Ac-Tre to (n-1)-O-Ac-Tre. Therefore, Knm=K^m and Vnmax=V^max for n≤6.
(§7) The model was fit to 3 separate data sets obtained from incubation of cells with 5, 15 and 30 mM 6-O-Ac-Tre, each obtained consisting out of total trehalose and total (n)-O-Ac-Tre variants concentration data (Fig 4, also see S1 Fig). The model was fit to the data up to 9 h incubation. The results are plotted in Fig 4. Using only 3 fitting parameters, the model fit all the 6 data sets very closely with nonlinear regression coefficient R^2 values >0.92. By increasing the incubation concentration from 5 to 30 mM, the value of permeability increased from 2.2×10^−9 to 8.0×10^−9 m s^-1 resulting in an average of 5.0±3.4×10^−9 m s^-1.

For series [3], the system named is rat hepatocytes. Described as above. In kind it is in vitro ADME.
Excerpt: as §1, §2, §3, §4, §5, §6, §7

With `CC(=O)OC1C(CO)OC(OC2OC(CO)C(OC(C)=O)C(OC(C)=O)C2OC(C)=O)C(OC(C)=O)C1OC(C)=O` (stereo not drawn) [6-O-Ac-Tre, trehalose hexaacetate], in the series on rat hepatocytes [1], the “MTT viability versus control” value is listed as “no significant difference”. Moreover, the Papp at 9 h in series [2] (Average±S.D. over 5, 15, 30 mM) was found to be 5 nm/s. The Papp at 9 h, 5 mM in series [2] (C* 5 mM, fit up to 9 h) was found to be 2.2 nm/s. Besides, the Papp at 9 h, 15 mM in series [2] (C* 15 mM, fit up to 9 h) was found to be 3.9 nm/s. In addition, the Papp at 9 h, 30 mM in series [2] (C* 30 mM, fit up to 9 h) turned out to be 8 nm/s. In addition, the “K^m of intracellular esterase deacetylation” value with rat hepatocytes [3] (Average±S.D. over 5, 15, 30 mM) was 0.097 ± 0.006 mM; in the series on rat hepatocytes [3] (C* 5 mM) it was 0.09 mM; in the series with rat hepatocytes [3] (C* 15 mM), 0.1 mM; in the series on rat hepatocytes [3] (C* 30 mM) it was 0.1 mM. The “V^max of intracellular esterase deacetylation” value in the series on rat hepatocytes [3] (Average±S.D. over 5, 15, 30 mM) turned out to be 0.0167 ± 0.01 mM/s; in the series on rat hepatocytes [3] (C* 5 mM) it was 0.007 mM/s; in the series on rat hepatocytes [3] (C* 15 mM) it was 0.016 mM/s; in the series with rat hepatocytes [3] (C* 30 mM), 0.027 mM/s. Moreover, in the series with rat hepatocytes [3] (constant from 5 to 30 mM incubation), the K m was ~ 0.1 mM. In addition, in the series on rat hepatocytes [3] (hydrolysis of acetylated trehalose), the “average conversion rate by esterases” value worked out at 60 ± 36 mM/h.
